Source: PubChem BioAssay (NCI)
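Each compound was tested at five concentrations against cells in 96-well plates for 48 hours. GI50: concentration for 50% inhibition of growth. TGI marks complete inhibition of growth.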

Experiments:
Test in all cases: inhibition of tumour cell growth, NCI panel, 48 h
[1] = system: 786-0 renal
[2] = system: A498 renal
[3] = system: A549 NSCLC
[4] = system: ACHN renal
[5] = system: BT-549 breast
[6] = system: CAKI-1 renal
[7] = system: CCRF-CEM leukemia
[8] = system: COLO 205 colon
[9] = system: DU-145 prostate
[10] = system: EKVX NSCLC
[11] = system: HCC-2998 colon
[12] = system: HCT-116 colon
[13] = system: HCT-15 colon
[14] = system: HL-60(TB) leukemia
[15] = system: HOP-62 NSCLC
[16] = system: HOP-92 NSCLC
[17] = system: HS 578T breast
[18] = system: HT29 colon
[19] = system: IGROV1 ovarian
[20] = system: K-562 leukemia
[21] = system: KM12 colon
[22] = system: LOX IMVI melanoma
[23] = system: M14 melanoma
[24] = system: MALME-3M melanoma
[25] = system: MCF7 breast
[26] = system: MDA-MB-231 breast
[27] = system: MDA-MB-435
[28] = system: MOLT-4 leukemia
[29] = system: NCI-H226 lung
[30] = system: NCI-H23 lung
[31] = system: NCI-H460 lung
[32] = system: NCI-H522 lung
[33] = system: NCI/ADR-RES ovarian
[34] = system: OVCAR-3 ovarian
[35] = system: OVCAR-4 ovarian
[36] = system: OVCAR-5 ovarian
[37] = system: OVCAR-8 ovarian
[38] = system: PC-3 prostate
[39] = system: RPMI-8226 leukemia
[40] = system: RXF 393 renal
[41] = system: SF-268 CNS
[42] = system: SF-295 CNS
[43] = system: SF-539 CNS
[44] = system: SK-MEL-2 melanoma
[45] = system: SK-MEL-28 melanoma
[46] = system: SK-MEL-5 melanoma
[47] = system: SK-OV-3 ovarian
[48] = system: SN12C renal
[49] = system: SNB-19 CNS
[50] = system: SNB-75 CNS
[51] = system: SR leukemia
[52] = system: SW-620 colon
[53] = system: T-47D breast
[54] = system: TK-10 renal
[55] = system: U251 CNS
[56] = system: UACC-257 melanoma
[57] = system: UACC-62 melanoma
[58] = system: UO-31 renal

Structure (SMILES): CC(=O)OCC1OC(OC2=C(CC=C(C)C)C(=O)c3ccccc3C2=O)C(OC(C)=O)C(OC(C)=O)C1OC(C)=O (stereo unspecified)
- GI50 [1]: 14.1 µM
- TGI [1]: 27.3 µM
- GI50 [2]: > 33.6 µM
- TGI [2]: > 56.9 µM
- GI50 [3]: 10.4 µM
- TGI [3]: 40 µM
- GI50 [4]: 3.16 µM
- TGI [4]: 10.1 µM
- GI50 [5]: 2.25 µM
- TGI [5]: 6.95 µM
- GI50 [6]: 6.55 µM
- TGI [6]: 17.7 µM
- GI50 [7]: 3.83 µM
- TGI [7]: > 100 µM
- GI50 [8]: 11.5 µM
- TGI [8]: 24.2 µM
- GI50 [9]: 10.9 µM
- TGI [9]: 22.9 µM
- GI50 [10]: 2.81 µM
- TGI [10]: 11.6 µM
- GI50 [11]: 8.05 µM
- TGI [11]: 20.5 µM
- GI50 [12]: 1.6 µM
- TGI [12]: 3.05 µM
- GI50 [13]: 3.91 µM
- TGI [13]: 18.1 µM
- GI50 [14]: 2.91 µM
- TGI [14]: 6.62 µM
- GI50 [15]: 18 µM
- TGI [15]: 33.6 µM
- GI50 [16]: 1.52 µM
- TGI [16]: 3.77 µM
- GI50 [17]: 5.21 µM
- TGI [17]: > 32.6 µM
- GI50 [18]: 15.3 µM
- TGI [18]: 36.7 µM
- GI50 [19]: 3.47 µM
- TGI [19]: 8.21 µM
- GI50 [20]: 2.72 µM
- TGI [20]: > 30.4 µM
- GI50 [21]: 2.26 µM
- TGI [21]: 4.89 µM
- GI50 [22]: 2.58 µM
- TGI [22]: 8.01 µM
- GI50 [23]: 5.67 µM
- TGI [23]: 18.2 µM
- GI50 [24]: 4.96 µM
- TGI [24]: 19.6 µM
- GI50 [25]: 2.06 µM
- TGI [25]: 4.73 µM
- GI50 [26]: 2.63 µM
- TGI [26]: 8.41 µM
- GI50 [27]: 2.9 µM
- TGI [27]: 9.09 µM
- GI50 [28]: 2.5 µM
- TGI [28]: 6.59 µM
- GI50 [29]: 5.58 µM
- TGI [29]: 28.3 µM
- GI50 [30]: 4.13 µM
- TGI [30]: 16.9 µM
- GI50 [31]: 4.12 µM
- TGI [31]: 15.5 µM
- GI50 [32]: 1.88 µM
- TGI [32]: 4.85 µM
- GI50 [33]: 3.07 µM
- TGI [33]: 10.2 µM
- GI50 [34]: 1.93 µM
- TGI [34]: 3.58 µM
- GI50 [35]: 2.31 µM
- TGI [35]: 6.7 µM
- GI50 [36]: 4.57 µM
- TGI [36]: 16.2 µM
- GI50 [37]: 3.23 µM
- TGI [37]: 11.9 µM
- GI50 [38]: 1.97 µM
- TGI [38]: 6.08 µM
- GI50 [39]: 2.03 µM
- TGI [39]: 5.25 µM
- GI50 [40]: 3.76 µM
- TGI [40]: 8.32 µM
- GI50 [41]: 4.23 µM
- TGI [41]: 15.5 µM
- GI50 [42]: 3.67 µM
- TGI [42]: 12.7 µM
- GI50 [43]: 2.84 µM
- TGI [43]: 9.9 µM
- GI50 [44]: 2.46 µM
- TGI [44]: 5.67 µM
- GI50 [45]: 5.22 µM
- TGI [45]: 16.9 µM
- GI50 [46]: 2.24 µM
- TGI [46]: 5.15 µM
- GI50 [47]: 12.9 µM
- TGI [47]: 25.9 µM
- GI50 [48]: 7.01 µM
- TGI [48]: 23.9 µM
- GI50 [49]: 6.28 µM
- TGI [49]: 16.2 µM
- GI50 [50]: 3.35 µM
- TGI [50]: 11.4 µM
- GI50 [51]: 3.55 µM
- TGI [51]: 51.1 µM
- GI50 [52]: 2.78 µM
- TGI [52]: 9.18 µM
- GI50 [53]: 1.93 µM
- TGI [53]: 4.24 µM
- GI50 [54]: 15.1 µM
- TGI [54]: 29.8 µM
- GI50 [55]: 2.92 µM
- TGI [55]: 11.5 µM
- GI50 [56]: 3.75 µM
- TGI [56]: 10.3 µM
- GI50 [57]: 2.45 µM
- TGI [57]: 7.15 µM
- GI50 [58]: 2.68 µM
- TGI [58]: 10.7 µM
